In article PMC12302339 (Journal of Advanced Research, 2024):
Values after ≈ are worked out from the molar mass of the structure shown.

Experiments:
[1] = system: A549, human non-small cell lung cancer cells; assay: cells; assay type: cell-based
p42 = assay type: binding, Xanthomonas oryzae pv. oryzae
in vivo = details: Brachydanio rerio (zebrafish)
rice = details: in vivo

Q: With `O=c1[nH]cc(F)c(=O)[nH]1` [5-FU, 5-fluorouracil, reference compound] as the compound, how does the IC50 [1] read?
A: The IC50 was 1.42 µM.

Q: With `C#CCNc1ncnc2ccccc12` [NP, N-(prop-2-yn-1-yl)quinazolin-4-amine] as the compound, how does the “proteome labeling in situ or in vitro” value (p42) read?
A: The value was “failed to label any proteins”.

Q: Which results are given for `C=CC(=O)Nc1ncnc2ccc(Br)cc12` [compound 7a, N-(6-bromoquinazolin-4-yl)acrylamide]?
A: LC50 at 48 h (in vivo): 0.53 µg/mL (≈ 1.91 µM); LC50 at 72 h (in vivo): 0.48 µg/mL (≈ 1.73 µM); LC50 at 96 h (in vivo): 0.48 µg/mL (≈ 1.73 µM); phytotoxicity on rice leaves (rice): no signs of damage; competition of probe P1 labeling of p42 (p42): dose-dependently competed; IC50 [1]: 23.1 µM

Q: Which “proteome labeling in situ or in vitro” value (p42) does the source give for `C#CCN(C(=O)C=C)c1ncnc2ccc(Br)cc12` [probe P1, N-(6-bromoquinazolin-4-yl)-N-(prop-2-yn-1-yl)acrylamide] here?
A: Its value is “prominent labeling”.

Q: What about the “time after which p42 was visualized” value (p42) of the same compound?
A: Its value is 5 min.

Q: And the “time to complete labeling of p42” value (p42)?
A: The value was 2 h.
